Read-outs that look alike come from different tables or passages of the source.
Assays:
[1] = target: caspase-like activity of the proteasome (Homo sapiens, UniProt P28072); assay: Cellular proteasomal caspase-like activity; assay type: cell-based
Description: The chemotrypsin-like, trypsin-like and caspase-like activities of the proteasome were evaluated in cells with the G8660, G8861 and G8761 kits respectively according to the manufacturer’s instructions (Promega, USA). Briefly, the assays are based on the use of short amino-acid sequences coupled with luciferin and that can be specifically cleaved by each catalytic unit of the proteasomal complex. For this purpose, cells were seeded in 96 well plates 24 h before their treatment with 1 (5 µM), 13 (1 µM) for 6 h or with the positive control MG132 (1 µM) for 24 h. At the end of the treatments, cells were washed three times with PBS and permeabilized with digitonin (0.5 mg/mL; 50 µL per well) under shaking for 10 min. Then, 50 µL of a mixture of the substrate of interest and luciferase were added for 15 min under slow shaking. Luminescence levels quantified with the Active-Glo LR-100 luminometer (DSLabs, Suisse) were normalized according the number of viable cells evaluated in parallel in the same conditions by means of MTT assay.

[2] = system: SKMEL-28 melanoma and U373 glioblastoma cells; assay: Morphological evaluation by phase contrast microscopy / videomicroscopy; assay type: cell-based, human
Description: For the morphological evaluation of the effects induced by compounds 1 and 13, 6 × 10^4 cells were seeded on glass coverslips placed in 6 well plates a minimum 24 h before their treatment. At the end of the incubation period with the treatment, coverslips were rinsed once in PBS buffer and directly mounted on slides to allow visualization of the cell with an Axio.Imager.M2 microscope (G X40 and G X100).

[3] = system: SK-MEL-28 human melanoma and U373 glioblastoma cells; assay: ER swelling / vacuole origin (CellLight ER-GFP, brightfield, TEM); assay type: cell-based; conditions: SK-MEL-28 and U373 cells
Source text: To decipher the origin of vacuoles, fluorescent probes staining different cellular compartments were used: the lysosomal Red DND-99 LysoTracker®, the glibenclamide Red ER tracker®, the green FM MitoTracker® that were all purchased from Lifes Technologies (Invitrogen, Belgium) and used according to manufacturer’s instructions. The CellLight ER-GFP (Thermofisher, Belgium) staining of the ER is based on the transfection of a plasmid coding for a fusion protein made of GFP fused to the ER signal sequence of calreticulin and the KDEL ER retention signal. Briefly, 6 × 10^4 cells were seeded on glass coverslips in 6 well plates. After a minimum of 24 h, cells were treated or not with the compounds of interest. Note that concentration and duration of the treatment were determined separately for each compound prior to the experiment on the basis of the apparition of marked morphological changes in phase contrast microscopy. Sixteen hours before the end of the experiment, 4 µL/well of the reagent were added to allow transfection and expression of the GFP-fused protein by the cells. Coverslips were then washed twice in PBS and mounted on slides without fixation step to take captions with the Axio.Imager.M2 microscope (Carl Zeiss, Belgium). To evaluate the cellular distribution of 13, the Axio.Imager.M2 was specifically equipped with an M340L4 excitation source (Thorlabs) and the pseudoconfocal Zeiss ZEN deconvolution system kindly provided for demo by Carl Zeiss (Belgium) to allow direct visualization of the compound 13 itself thanks to its intrinsic fluorescent properties.
For TEM, cells were fixed with glutaraldehyde 2.5% (EM grade, Electron Microscopy Sciences, EMS) at 4 °C overnight, washed tree times in cacodylate buffer (pH 7.4) and postfixed 1 h at room temperature in 1% OsO4, (EMS), 1.5% potassium ferrocyanide (Sigma-Aldrich) in 0.15 M cacodylate buffer. This was immediately followed by a second incubation in 1% OsO4 for 1 h at room temperature. After washing in distilled water, samples were stained with 1% uranyl acetate (EMS) and serially dehydrated in increasing ethanol concentrations. Samples were then embedded in epoxy resin (Agar 100 resin, Agar Scientific Ltd) and left to polymerize for 2 days at 60 °C. Ultrathin sections (50–70 nm thick) were collected with a Leica UC6 ultra-microtome on formvar-carbon-coated copper grids and further stained with uranyl acetate and lead citrate by standard procedures. Observations were made on a Tecnai 10 transmission electron microscope (FEI) and images were captured with a Veleta camera and processed with SIS iTEM software (Olympus).

[4] = system: Parental sensitive models; assay: MTT assay, mean of parental sensitive models; assay type: cell-based; conditions: 72 h, read-out: IC50 determined by MTT assays, mean of parental sensitive models
Source text: (§1) Cancer cell lines were obtained from either the European Collection of Cell Cultures (ECACC; Salisbury, UK) or the American Type Culture Collection (ATCC; Manassas, VA). The two glioma cell lines were the U373 (ECACC code 08061901) and Hs683 (ATCC HTB-138) cell lines. The carcinoma cell lines were the A549 non-small cell carcinoma cell line (ATCC code CCL 185) and the MCF-7 mammary breast carcinoma cell line (ATCC code HTB-22). The melanoma cell lines were the mouse B16F10 cells (ATCC code CRL-6475) and the human SKMEL-28 cells (ATCC code HTB-72). The ovarian cancer cell line A2780 and its cisplatin-resistant subline A2780cis were obtained from Sigma-Aldrich (St. Louis, MO, USA). Colon cancer HCT116 cells were obtained from ATCC (CCL-247) and the oxaliplatin-resistant subline HCT116/OxR established in the W. Berger lab[59]. The HeLa cell derivative KB-3-1 and the colchicine-selected, highly ABCB1-overexpressing subline KB-C-1 were generously donated by Dr. D. W. Shen, Bethesda, MD. RKOp53wt colon cancer cells together with the RKOp53KO (homozygous knock-out) subline[60] were generously provided by Dr. Vogelstein from John Hopkins University, Baltimore. The correct origin of all cell models was confirmed by STR during performance of the experiments. All cell lines were cultured in RPMI1640 culture medium supplemented with 10% heat-inactivated fetal bovine serum, 2% L-glutamine (0.6 mg/mL), 2% penicillin/streptomycin (200 IU/mL and 200 μg/mL) and 0.1 mg/mL gentamicin.
(§2) The MTT (3-(4,5-dimethylthiazol-2-yl)-2,5-diphenyl tetrazolium bromide) colorimetric assay has been conducted as described previously. Briefly, cells were seeded 24 h before their treatment with each compound for a period of 72 h. The concentrations tested ranged from 10 nM to 100 µM. Each assay was conducted in sextuplicates. The number of independent experiments is mentioned in the legend of the tables.
SI Table 1: IC50 determined by MTT assays. Mean concentration (± standard deviation) in µM required to
reduce the viability of cells by 50% after a 72 h treatment relative to the control.
Parental sensitive models Drug-resistant models

[5] = system: A549, SKMEL-28, U373, MCF7, Hs683, B16F10; assay: MTT colorimetric assay, mean of the six cell lines; assay type: cell-based; conditions: for IC50: mean over the six cell lines, 72 h treatment, read-out: IC50 determined by MTT assays, Mean
Source text: as §1, §2

caspase-like activity of the proteasome, sequence (P28072 whole entry): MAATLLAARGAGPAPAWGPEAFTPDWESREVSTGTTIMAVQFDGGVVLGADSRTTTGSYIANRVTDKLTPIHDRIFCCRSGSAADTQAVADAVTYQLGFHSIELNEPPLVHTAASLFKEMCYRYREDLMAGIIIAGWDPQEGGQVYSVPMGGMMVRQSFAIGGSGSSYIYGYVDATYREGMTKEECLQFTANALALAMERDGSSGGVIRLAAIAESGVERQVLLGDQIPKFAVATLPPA

With CC1(C=CCCCc2ccc3ccc4cccc5ccc2c3c45)C=C2C(=O)C3(O)OC(=O)C4(CCCC(C)(C)C34)C2(O)CC1 (centres unmarked) [Compound 13] the inhibition at 1 µM ([1]; 13 at 1 µM, 6 h of treatment, both SKMEL-28 and U373) was > 60%, the “time to severe vacuolization” value ([2]; SKMEL-28 and U373 respectively) was 15 to 24 h and the “ER swelling / ER-derived vacuolization” value [3] was “severe swelling of the ER”. For the same compound, the IC50 [4] was 1 µM, the IC50 ([5]; 72 h) was 0.3 µM and the “IC50 fold lower than compound 1” value ([5]; cancer cell panel, MTT) was 5–10 times. For the same compound, the IC50 [5] was 0.37 ± 0.04 µM.

In the case of CC1(C=CCCCc2ccc3ccc4cccc5ccc2c3c45)C=C2C(O)C3(O)OC(=O)C4(CCCC(C)(C)C34)C2(O)CC1 (centres unmarked) [Compound 16], the “ER swelling / ER-derived vacuolization” value [3] is reported as “severe ER-swelling”, the IC50 [4] is reported as 8 µM and the IC50 ([5]; 72 h) is reported as 6.86 ± 0.53 µM.

C=C[C@]1(C)C=C2C(=O)[C@@]3(O)OC(=O)[C@@]4(CCCC(C)(C)[C@H]34)[C@@]2(O)CC1 [Compound 1, sphaeropsidin A, reference compound] was tested, and the “effect on caspase-like proteasomal activity” value ([1]; 1 at 5 µM, 6 h) was “stimulate caspase-like activity”, the “time to cellular shrinkage” value ([2]; SKMEL-28 and U373) was ≤ 6 h and the IC50 [4] was 3 µM. The IC50 ([5]; 72 h) was 2.07 ± 0.15 µM.

— PMC11199504, “New hemisynthetic derivatives of sphaeropsidin phytotoxins triggering severe endoplasmic reticulum swelling in cancer cells” (Scientific Reports, 2024)
